Laboratory results as given in ChEMBL document CHEMBL4017496 (J Med Chem, 2017).
Active and inactive are the calls of the source. The calls are words filed in the database; no cut-off is given here.

Legend:
[1] = Induction of adipogenesis in human bone marrow-derived mesenchymal stem cells assessed as adiponectin level at 4 uM measured on day 7 after 48 hrs by ELISA; type: functional, Mesenchymal stem cell
[2] = target: T1, Peroxisome proliferator-activated receptor alpha (Homo sapiens) (UniProt Q07869); assay: Displacement of Fluormone-Pan-PPAR Green from human GST-tagged PPARalpha LBD at 20 uM by TR-FRET assay relative to control
T1 sequence (whole entry): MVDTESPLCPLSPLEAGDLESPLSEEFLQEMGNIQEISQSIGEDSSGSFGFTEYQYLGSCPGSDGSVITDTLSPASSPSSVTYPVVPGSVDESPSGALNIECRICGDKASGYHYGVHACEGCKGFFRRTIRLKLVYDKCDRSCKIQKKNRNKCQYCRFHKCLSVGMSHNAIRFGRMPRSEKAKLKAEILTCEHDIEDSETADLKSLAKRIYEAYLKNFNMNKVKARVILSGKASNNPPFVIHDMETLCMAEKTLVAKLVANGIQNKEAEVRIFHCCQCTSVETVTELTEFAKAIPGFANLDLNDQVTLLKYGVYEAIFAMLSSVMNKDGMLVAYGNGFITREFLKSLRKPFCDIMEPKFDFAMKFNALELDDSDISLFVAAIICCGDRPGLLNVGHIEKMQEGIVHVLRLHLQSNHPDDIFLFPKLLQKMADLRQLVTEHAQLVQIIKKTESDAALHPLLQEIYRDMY

[3] = Induction of adipogenesis in human bone marrow-derived mesenchymal stem cells assessed as adiponectin level at 20 uM measured on day 7 after 48 hrs by ELISA; type: functional, Mesenchymal stem cell
[4] = target: T2, Peroxisome proliferator-activated receptor gamma (Homo sapiens, UniProt P37231); assay: (§1) Displacement of Fluormone-Pan-PPAR Green from human GST-tagged PPARgamma LBD by TR-FRET assay
T2 sequence (P37231 whole entry): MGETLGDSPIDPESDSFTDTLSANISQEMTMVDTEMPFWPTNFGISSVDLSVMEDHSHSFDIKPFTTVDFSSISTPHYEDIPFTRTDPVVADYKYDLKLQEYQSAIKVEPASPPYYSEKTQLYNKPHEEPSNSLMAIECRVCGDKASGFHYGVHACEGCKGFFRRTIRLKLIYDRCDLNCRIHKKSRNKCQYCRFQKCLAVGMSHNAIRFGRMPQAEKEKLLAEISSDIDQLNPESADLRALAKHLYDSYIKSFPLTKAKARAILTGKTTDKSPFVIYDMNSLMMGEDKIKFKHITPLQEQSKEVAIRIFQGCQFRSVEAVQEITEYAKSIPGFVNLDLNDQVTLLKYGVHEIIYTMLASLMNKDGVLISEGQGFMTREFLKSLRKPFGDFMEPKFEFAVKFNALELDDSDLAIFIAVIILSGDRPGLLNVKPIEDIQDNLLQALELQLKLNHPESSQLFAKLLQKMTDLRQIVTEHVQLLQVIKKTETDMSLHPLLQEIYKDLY

[5] = target: T3, Peroxisome proliferator-activated receptor delta (Homo sapiens, UniProt Q03181); assay: Displacement of Fluormone-Pan-PPAR Green from human GST-tagged PPARdelta LBD by TR-FRET assay
T3 sequence (Q03181 whole entry): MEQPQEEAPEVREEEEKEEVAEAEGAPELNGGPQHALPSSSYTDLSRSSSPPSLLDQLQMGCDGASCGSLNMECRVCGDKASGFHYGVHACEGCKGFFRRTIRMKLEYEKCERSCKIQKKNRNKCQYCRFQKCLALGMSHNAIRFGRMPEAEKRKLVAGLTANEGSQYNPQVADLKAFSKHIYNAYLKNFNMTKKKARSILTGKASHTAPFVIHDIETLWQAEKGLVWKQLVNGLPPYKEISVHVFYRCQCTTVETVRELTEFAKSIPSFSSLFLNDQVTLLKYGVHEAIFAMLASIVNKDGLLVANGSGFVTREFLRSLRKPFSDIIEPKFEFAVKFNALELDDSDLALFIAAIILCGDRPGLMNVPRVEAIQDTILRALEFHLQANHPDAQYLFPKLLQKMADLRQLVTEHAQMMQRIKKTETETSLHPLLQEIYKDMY

[6] = Induction of adipogenesis in mouse 7F2 cells transfected with human AR assessed as increase in […] at 1 to 10 uM after 7 to 12 days by staining based oil red O phase contrast microscopic method relative to control; type: functional
Mesenchymal stem cell [7] = assay: Induction of adipogenesis in human bone marrow-derived mesenchymal stem cells assessed as increase in adiponectin production at 20.4 uM after 7 days in presence of IDX; type: functional, cell-based
[8] = target: T4, Peroxisome proliferator-activated receptor delta (Homo sapiens) (UniProt Q03181); assay: Displacement of Fluormone-Pan-PPAR Green from human GST-tagged PPARdelta LBD at 10 uM by TR-FRET assay relative to control
T4 sequence (whole entry): T3 sequence (Q03181 whole entry)

Mesenchymal stem cell [9] = assay: Induction of adipogenesis in human bone marrow-derived mesenchymal stem cells assessed as adiponectin level at 20 to 30 uM measured on day 7 after 48 hrs by ELISA; type: functional, cell-based
[10] = target: T5, Peroxisome proliferator-activated receptor gamma (Homo sapiens) (UniProt P37231); assay: Transactivation of human PPARgamma expressed in African green monkey CV1 cells at 10 uM by luciferase reporter gene assay relative to control; type: cell-based
T5 sequence (whole entry): T2 sequence (P37231 whole entry)

Mus musculus [11] = assay: Antidiabetic activity in STZ-induced diabetic C57BL/6J mouse assessed as insulin sensitivity by measuring reduction of serum glucose levels administered po for 5 days measured at 1 and 4 hrs post last dose; type: functional, organism-based
[12] = target: T4, Peroxisome proliferator-activated receptor delta (Homo sapiens); assay: Transrepression of human GST-tagged PPARdelta LBD assessed as induction of corepressor SMRT-ID2 peptide recruitment by TR-FRET assay
[13] = target: T5, Peroxisome proliferator-activated receptor gamma (Homo sapiens); assay: as §1
[14] = target: Peroxisome proliferator-activated receptor delta (Homo sapiens) (UniProt Q03181); assay: Antagonist activity at human GST-tagged PPARdelta LBD assessed as reduction in GW501516-induced fluorescein-C33 coactivator recruitment at 1 uM by TR-FRET assay relative to control
[15] = target: T4, Peroxisome proliferator-activated receptor delta (Homo sapiens); assay: Transactivation of human GST-tagged PPARdelta LBD assessed as fluorescein-C33 coactivator recruitment at 10 uM by TR-FRET assay
Mus musculus [16] = assay: Antidiabetic activity in STZ-induced diabetic C57BL/6J mouse assessed as insulin sensitivity by measuring reduction of serum glucose levels at 20 mg/kg,po for 5 days measured at 1 and 4 hrs post last dose; type: functional, organism-based
[17] = target: T5, Peroxisome proliferator-activated receptor gamma (Homo sapiens); assay: Displacement of Fluormone-Pan-PPAR Green from human GST-tagged PPARgamma LBD at 20 uM by TR-FRET assay relative to control
Adenosine receptor A3 = target: T6, Adenosine receptor A3 (Homo sapiens, UniProt P0DMS8); assay: Displacement of [125I]I-AB-MECA from human A3 adenosine receptor expressed in CHO cell membranes after 60 mins by gamma counting method
T6 sequence (P0DMS8 whole entry): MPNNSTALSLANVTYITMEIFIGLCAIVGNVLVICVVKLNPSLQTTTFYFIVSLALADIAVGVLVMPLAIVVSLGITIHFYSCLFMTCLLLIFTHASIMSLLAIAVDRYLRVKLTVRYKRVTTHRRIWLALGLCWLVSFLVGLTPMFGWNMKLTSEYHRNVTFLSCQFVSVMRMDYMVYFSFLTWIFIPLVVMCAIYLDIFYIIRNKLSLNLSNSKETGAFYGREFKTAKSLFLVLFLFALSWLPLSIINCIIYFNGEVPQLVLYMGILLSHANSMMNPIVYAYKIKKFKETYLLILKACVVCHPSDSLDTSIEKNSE

## CNC(=O)[C@H]1S[C@@H](n2cnc3c(NCc4cccc(I)c4)nc(Cl)nc32)[C@H](O)[C@@H]1O
[1]
  Activity: 131 pg/mL
[2]
  inhibition: 37.8%
[3]
  Activity: 738 pg/mL
[4]
  Ki: 4600 nM
[5]
  Ki: 160 nM

## OC[C@H]1O[C@@H](n2cnc3c(NC4CCCC4)nc(Cl)nc32)[C@H](O)[C@@H]1O
[6]
  Activity: 20 - 30%
Mesenchymal stem cell [7]
  Activity: inactive

## COc1ccc(Cl)cc1C(=O)NCCc1ccc(S(=O)(=O)NC(=O)NC2CCCCC2)cc1 [GLYBURIDE]
[1]
  Activity: 838 pg/mL
[3]
  Activity: 1000 pg/mL
[8]
  inhibition: 21.5%

## Cc1c(C)c2c(c(C)c1O)CCC(C)(COc1ccc(CC3SC(=O)NC3=O)cc1)O2 (centres undefined)
[8]
  inhibition: 23.4%

## O=C(NCC1CC1)[C@H]1S[C@@H](n2cnc3c(NCc4cccc(I)c4)ncnc32)[C@H](O)[C@@H]1O
[1]
  Activity: 242 pg/mL
[2]
  inhibition: 16.4%
[3]
  Activity: 490 pg/mL

## CCCn1cc2c(nc(NC(=O)Nc3ccc(OC)cc3)n3nc(-c4ccco4)nc23)n1
Mesenchymal stem cell [9]
  Activity: inactive

## CCNC(=O)[C@H]1O[C@@H](n2cnc3c(N)nc(NCCc4ccc(CCC(=O)O)cc4)nc32)[C@H](O)[C@@H]1O
Mesenchymal stem cell [7]
  Activity: inactive

## CC(C)Cn1c(=O)n(C)c(=O)c2nc[nH]c21 [ISOBUTYLMETHYLXANTHINE]
[1]
  Activity: 100 pg/mL
[3]
  Activity: 100 pg/mL

## C[C@@H]1C[C@H]2[C@@H]3CCC4=CC(=O)C=C[C@]4(C)[C@@]3(F)[C@@H](O)C[C@]2(C)[C@@]1(O)C(=O)CO [DEXAMETHASONE]
[1]
  Activity: 100 pg/mL
[3]
  Activity: 100 pg/mL

## O[C@@H]1[C@H](O)CS[C@H]1n1cnc2c(NCc3cccc(I)c3)nc(Cl)nc21
[1]
  Activity: 192 pg/mL
[10]
  Activity: 54.3%
Mus musculus [11]
  Activity: Dose-dependent effect
[3]
  Activity: 857 pg/mL
[12]
  Activity: Dose-dependent effect
[13]
  inhibition: Dose-dependent effect
[14]
  inhibition: 57%
[15]
  Activity: inactive
[5]
  Ki: 4.83 nM
Mus musculus [16]
  Activity: Active

## O[C@@H]1[C@H](O)CS[C@H]1n1cnc2c(NCc3ccccc3Cl)nc(Cl)nc21
[17]
  inhibition: 19.2%
[1]
  Activity: 107 pg/mL
[2]
  inhibition: 19.2%
[3]
  Activity: 268 pg/mL
[5]
  Ki: 620 nM

## O[C@@H]1[C@H](O)CS[C@H]1n1cnc2c(NCc3cccc(I)c3)ncnc21
Adenosine receptor A3
  Ki: 1.5 nM

## O=C(NC1CC1)[C@H]1S[C@@H](n2cnc3c(NCc4cccc(I)c4)ncnc32)[C@H](O)[C@@H]1O
[17]
  inhibition: 49.1%
[1]
  Activity: 174 pg/mL
[2]
  inhibition: 37.6%
[3]
  Activity: 249 pg/mL
[5]
  Ki: 2980 nM

## CNC(=O)[C@@]12C[C@@H]1[C@@H](n1cnc3c(NCc4cccc(Cl)c4)nc(C#Cc4ccc(F)c(F)c4)nc31)[C@H](O)[C@@H]2O
Mesenchymal stem cell [9]
  Activity: inactive

## CNC(=O)[C@H]1S[C@@H](n2cnc3c(NCc4cccc(I)c4)ncnc32)[C@H](O)[C@@H]1O
[17]
  inhibition: 46.9%
[1]
  Activity: 126 pg/mL
[10]
  Activity: 46.9%
[2]
  inhibition: 13.5%
Adenosine receptor A3
  Ki: 0.3 nM
[3]
  Activity: 343 pg/mL
[12]
  Activity: Active
[14]
  inhibition: 22%
[15]
  Activity: inactive
[5]
  Ki: 2540 nM
Mus musculus [16]
  Activity: Active

## CCNC(=O)[C@H]1O[C@@H](n2cnc3c(N)ncnc32)[C@H](O)[C@@H]1O [NECA]
[6]
  Activity: 20 - 30%
Mesenchymal stem cell [7]
  Activity: inactive

## O[C@@H]1[C@H](O)CS[C@H]1n1cnc2c(NCc3cccc(Cl)c3)nc(Cl)nc21
[17]
  inhibition: 40.8%
[1]
  Activity: 196 pg/mL
[2]
  inhibition: 4.5%
[3]
  Activity: 442 pg/mL

## CCNC(=O)[C@H]1S[C@@H](n2cnc3c(NCc4cccc(I)c4)ncnc32)[C@H](O)[C@@H]1O
[17]
  inhibition: 37.1%
[1]
  Activity: 118 pg/mL
[2]
  inhibition: 29.3%
[3]
  Activity: 242 pg/mL
[5]
  Ki: 3150 nM

## O=C(NC1CCC1)[C@H]1S[C@@H](n2cnc3c(NCc4cccc(I)c4)ncnc32)[C@H](O)[C@@H]1O
[1]
  Activity: 323 pg/mL
[2]
  inhibition: 11.7%
[3]
  Activity: 633 pg/mL
[4]
  Ki: 170 nM
[5]
  Ki: 2610 nM
